These results are taken from EPA's ToxValDB 9.5.

This series deals with Rattus norvegicus. The following applies: oral.
Setting [1] is: subchronic, gavage, M, Sprague-Dawley, Clinical Observation: Respiratory noise Irregular respiration Deep respiration R Soiled perigenital region R Oligo-stool R Hypothermia R + ….
[2] abbreviates: subchronic, gavage, M, Sprague-Dawley, Urinalysis: Round epithelial cell increase + Hematology: RBC decrease, HGB decrease, HCT decrease, RET increase, R + Blood Chemistry: a2-….
Where [3] appears, read: short-term, duration: 28 days, gavage, M, Sprague-Dawley, Clinical Observation: Diarrhea + Body Weight Changes: decrease + Food Consumption: decrease + Urinalysis: Color, Brown + Hematology: RET ….
Where [4] appears, read: chronic, duration: 17 weeks, gavage, F, Ash/CSE, Body Weight Changes: decrease.
Setting [5] is: chronic, duration: 17 weeks, gavage, M, Ash/CSE, Body Weight Changes: decrease.
The mark [6] stands for this setting: short-term, duration: 28 days, gavage, F, Sprague-Dawley, Food Consumption: decrease + Hematology: RBC decrease, Hct decrease1000 Hgb decrease1000 Plt increase, PT increase, APTT increase, Ret ….
Where [7] appears, read: short-term, duration: 28 days, gavage, M, Sprague-Dawley, Food Consumption: decrease + Hematology: RBC decrease, Hct decrease1000 Hgb decrease1000 Plt increase, PT increase, APTT increase, Ret ….

Each structure is given as a SMILES string. Where only a bound is given, the exact number is not on record here.

For the molecule `CN1CCN(C)C1=O` [1,3-Dimethyl-2-imidazolidinone], for the setting “subchronic, gavage, M, Sprague-Dawley, Body Weight Changes: Gain decrease(trend) + Blood Chemistry: TG increase, T-Cho increase(trend)TP decrease, R a1-glb decrease, R beta-glb …”, the NOEL was found to be 20 mg/kg-day.
A word on the NOAEL: it is the highest tested level that showed no adverse finding. For `O=C(OOC(=O)c1ccccc1)c1ccccc1` [Benzoyl peroxide], where the note is “short-term, duration: 28 days, gavage, M, Sprague-Dawley, Absolute Organ Weight: Testes decrease + Relative Organ Weight: Testes decrease, Epididymis decrease + Histopathology: Testes: Degeneration”, the NOAEL came out at 500 mg/kg-day.
On to `CCCCCCC[CH2][Sn]([Cl])([Cl])[Cl]` [Stannane, trichlorooctyl-], for which the NOAEL (subchronic, duration: 13 weeks, diet, M/F, Wistar, Blood Chemistry: ALP increase + Absolute Organ Weight: Thymus decrease + Relative Organ Weight: Thymus decrease + Histopathology: Thymus- …) worked out at 9.6 mg/kg-day and the NOAEL (subchronic, duration: 13 weeks, diet, M/F, Wistar, Body Weight Changes: Mean body weight decrease + Food Consumption: decrease + Urinalysis: SG decrease + Hematology: HGB decrease, HCT …) was < 2.88 mg/kg-day.
On to `CC(=O)N1CCN(c2ccc(OC[C@@H]3CO[C@@](Cn4ccnc4)(c4ccc(Cl)cc4Cl)O3)cc2)CC1` [Ketoconazole], for which the NOEL (short-term, duration: 28 days, gavage, M/F, Sprague-Dawley, Body Weight Changes: decrease + Blood Chemistry: ALT increase, Estrus cycle increase, T3 decrease, T4 decrease, TSH increase, Testosterone …) was < 6.25 mg/kg-day.
`Nc1ccc(Cl)cc1[N+](=O)[O-]` [4-Chloro-2-nitroaniline]: for the setting “subchronic, gavage, M, Sprague-Dawley, Hematology: Hct decrease, Ret increase + Relative Organ Weight: Heat increase, Liver increase, Kidneys increase, Adrenals increase + …”, the NOEL came to 10 mg/kg-day.
As to `CC(=O)N(C)c1ccccc1` [Acetamide, N-methyl-N-phenyl-], the NOEL (short-term, duration: 28 days, gavage, M/F, Sprague-Dawley, Deaths + Clinical Observation: Clonic convulsion Cyanosis Salivation Rearing decrease + Body Weight Changes: decrease + Food Consumption: …) was < 20 mg/kg-day.
Take `CC(C)(C)OOC(=O)c1ccccc1` [tert-Butyl perbenzoate]: the NOEL (subchronic, gavage, M/F, Fischer 344, Deaths + Body Weight Changes: decrease + Food Consumption: decrease + Absolute Organ Weight: Spleen decrease, Forestomach increase>60 …) was < 30 mg/kg-day.
Regarding `Cc1ccc(S(=O)(=O)O)c(C)c1` [2,4-Dimethylbenzenesulfonic acid], under setting [1], the LOEL is 500 mg/kg-day and the NOEL amounted to 100 mg/kg-day.
As to `C=CC/C=C/C/C=C/C/C=C/C` [1-Propene, tetramer], under setting [2], the NOAEL turned out to be 40 mg/kg-day and the NOEL was < 40 mg/kg-day.
`Nc1ccc(Cc2ccc(N)c(Cl)c2Cl)c(Cl)c1Cl` [Benzenamine, 4,4'-methylenebis(2,3-dichloro-]: where the note is “short-term, duration: 28 days, gavage, M/F, Sprague-Dawley, Deaths + Hematology: WBC increase + Blood Chemistry: Alpha 1-globirin, level decrease, K increasemg/kg/ , TG increase/ + Relative Organ …”, the NOEL was 100 mg/kg-day.
For `CCC(C)=NO[Si](C)(ON=C(C)CC)ON=C(C)CC` [Methyltri(2-butanoneoximyl)silane], the NOAEL (short-term, duration: 28 days, gavage, M, Wistar, Functional Observational Battery: Rearing decrease, Grip strength(fore and hind limb) decrease, Mean body temperature decrease + Body Weight…) came out at 10 mg/kg-day.
Take `Cc1cc(C)c(C)c(O)c1` [2,3,5-Trimethylphenol]: the NOEL (subchronic, gavage, M, Sprague-Dawley, Clinical Observation: Soiled perigenitalia of urine LethargyAtaxia gait(transient after administration) + Body Weight Changes: decrease(…) is 100 mg/kg-day.
Regarding `Br.CN1[C@@H]2CC(OC(=O)[C@H](CO)c3ccccc3)C[C@H]1[C@@H]1O[C@@H]12.O.O.O` (stereo partly specified) [Scopolamine hydrobromide trihydrate], the NOEL (chronic, duration: 14 weeks, gavage, M/F, Fischer 344, Deaths + Clinical Observation: Pupillary dilation Reddening of eyes Hypoactivity + Body Weight Changes: decrease + Hematology: Hgb increase…) was < 15 mg/kg-day.
As for `CCN1CCc2c3n(c4ccccc24)C(C(=O)OC)=CCC31.Cl` (stereo unspecified), the NOEL (chronic, duration: 91 days, gavage, M/F, CD, Clinical Observation: Salivation Greenish urine + Urinalysis: Greenish, or Dark green urine Quarry placoid crystal Urinary cast Volume …) turned out to be 50 mg/kg-day.
In the case of `Clc1ccc(OCCOCc2ccc(COCCOc3ccc(Cl)cc3)cc2)cc1`, the NOEL (short-term, duration: 28 days, gavage, M/F, Body Weight Changes: Body weight gain decrease + Food Consumption: decrease + Blood Chemistry: ALB increase, A/G increase + Organ Weight: …) came to 8 mg/kg-day.
Take `O=C1c2ccccc2C(=O)c2ccccc21` [Anthraquinone]: under setting [3], the NOAEL is < 200 mg/kg-day and the NOEL was < 200 mg/kg-day.
As to `CC(C)(C)c1cc(O)ccc1O` [tert-Butylhydroquinone], the NOEL is 200 mg/kg-day (subchronic, duration: 13 weeks, diet, F, Fischer 344, Clinical Observation: Hair discoloration + Body Weight Changes: decrease + Food Consumption: decrease + Blood Chemistry: Bile acid increase…) and < 240 mg/kg-day (subchronic, duration: 13 weeks, diet, M/F, Fischer 344, Clinical Observation: Hair discoloration + Body Weight Changes: decrease + Food Consumption: decrease + Blood Chemistry: Bile acid increase…).
As for `OCCOCCOCCO` [Triethylene glycol], the NOEL (subchronic, duration: 13 weeks, diet, M/F, Fischer 344, Body Weight Changes: Mean body weight decrease, Body weight gain decrease + Urinalysis: Urinalysis', 'Volume increase, pH decrease + …) is 1920 mg/kg-day.
For the molecule `Cc1cnc[nH]1` [4-Methylimidazole], the NOEL (subchronic, diet, M/F, Fischer 344, Deaths + Body Weight Changes: decrease + Hematology: Hct decrease, Hgb decrease, Ret decrease, Plt decrease, RBC decrease + Blood Chemistry…) was < 60 mg/kg-day.
As for `C=Cc1ccc(OC(C)(C)C)cc1` [4-tert-Butoxystyrene], for the setting “short-term, duration: 28 days, gavage, M/F, Deaths + Clinical Observation: Salivation + Body Weight Changes: Body weight gain decrease + Food Consumption: decrease + Urinalysis: Urine…”, the NOEL turned out to be 20 mg/kg-day.
Turning to `NC(=O)N/N=C/c1ccc([N+](=O)[O-])o1` [Nitrofurazone], the NOEL (subchronic, duration: 13 weeks, diet, M/F, Fischer 344, Body Weight Changes: decrease + Food Consumption: decrease + Absolute Organ Weight: Liver increase + Relative Organ Weight: Liver increase…) is < 14.4 mg/kg-day.
As for `CC(C)CCO` [Isopentyl alcohol], the no-observed-adverse-effect level (NOAEL) turned out to be 1000 mg/kg-day under setting [4] and 500 mg/kg-day under setting [5]. Besides, the NOEL worked out at 1000 mg/kg-day under setting [4] and 500 mg/kg-day under setting [5].
Turning to `Nc1cccc(Cl)c1` [3-Chloroaniline], the NOEL (subchronic, gavage, M/F, Fischer 344, Deaths + Clinical Observation: Bluish discoloration of the genital and footpad regions + Body Weight Changes: decrease + Hematology: Hct …) is < 10 mg/kg-day.
With `NC1=CC(=O)C(N=Nc2ccc(Nc3ccc(N=Nc4c(S(=O)(=O)[O-])cc5c(c4N)C(=O)C(N=Nc4ccccc4)C(S(=O)(=O)[O-])=C5)cc3S(=O)(=O)[O-])cc2)C=C1.[Na+].[Na+].[Na+]` (stereo unspecified), the NOEL (short-term, duration: 28 days, gavage, M/F, Hematology: MET-HGB increase, RET increase, RBC decrease, HGB decrease, MCHC decrease, MCV increase, PCV decrease, MCH increase, HEINZ …) was < 50 mg/kg-day.
On to `Nc1cc(OCCOc2ccccc2)n[nH]1` [3-(2-Phenoxyethoxy)-1H-pyrazol-5-amine], for which the NOEL (short-term, duration: 28 days, gavage, M/F, Deaths + Clinical Observation: Salivation Locomotor activity decrease, Sedation Urinary incontinence + Body Weight Changes: Body weight …) turned out to be 40 mg/kg-day.
Turning to `Clc1ccc(N=Nc2ccc(Cl)c(Cl)c2)cc1Cl` [3,3',4,4'-Tetrachloroazobenzene], the NOEL (subchronic, gavage, M/F, Fischer 344, Body Weight Changes: decrease + Hematology: Ret increase Hct decrease, Hgb decrease, RBC decrease, Plt decrease, WBC decrease, Seg decrease…) was < 0.1 mg/kg-day.
On to `CC(C)c1ccc(N)cc1` [Cumidine], for which the NOEL (subchronic, gavage, M, Sprague-Dawley, Clinical Observation: Anemia in eyes + Hematology: Met-Hgb increase, Hct decrease, Hgb decrease, RBC decrease, MCV increase, MCH increase, …) was determined as 6 mg/kg-day.
Regarding `COc1ccc(CCNCC(O)COc2cccc(C)c2)cc1OC.Cl` (stereo unspecified) [Bevantolol hydrochloride], where the note is “chronic, duration: 91 days, gavage, M/F, CD, Deaths + Clinical Observation: Salivation Sedation Ptosis Prone position Lateral position Crouching position Convulsion Incontinence of …”, the NOEL was determined as 60 mg/kg-day.
For `Nc1ccc2cc(S(=O)(=O)CCO)ccc2c1` [Ethanol, 2-[(6-amino-2-naphthalenyl)sulfonyl]-], the NOEL (short-term, duration: 28 days, gavage, M/F, Body Weight Changes: Weight gain decrease + Urinalysis: pH decrease(slight) + Hematology: RBC decrease, RET increase, PT increase + Absolute…) was determined as 15 mg/kg-day.
Regarding `CC(C)(C)c1ccc(O)c(O)c1` [4-tert-Butylcatechol], for the setting “subchronic, diet, M/F, Fischer 344, Body Weight Changes: decrease + Food Consumption: decrease + Hematology: Hct decrease, Hgb decrease, RBC decrease + Blood Chemistry: ALT …”, the NOEL was < 75 mg/kg-day.
As to `ClCCCCCCCCCl` [Octane, 1,8-dichloro-], the NOEL (short-term, duration: 28 days, gavage, M/F, Sprague-Dawley, Deaths + Clinical Observation: Salivation + Functional Observational Battery: Grip strength (forelimb) decrease, Grip strength (hindlimb) …) was < 40 mg/kg-day.
In the case of `[Cu+2].[O-]n1ccccc1=S.[O-]n1ccccc1=S` [Copper Omadine], the NOEL (short-term, duration: 28 days, gavage, M/F, Deaths + Clinical Observation: Ataxic gait Dragging of hindlimbs Emaciation + Body Weight Changes: decrease + Food Consumption: decrease + …) was found to be 2.5 mg/kg-day.
Regarding `C#CC(C)(C)O` [2-Methyl-3-butyn-2-ol], where the note is “short-term, duration: 28 days, gavage, M/F, BOB:WISW, Deaths + Clinical Observation: Sedation Narcosis Hypothermia + Body Weight Changes: decrease + Food Consumption: decrease + Hematology: WBC …”, the no observed adverse effect level (NOAEL) came to 50 mg/kg-day.
As a reminder, the LOAEL is the lowest tested level that showed an adverse finding. On to `O=C1c2ccccc2-c2cccc3cccc1c23` [Benz[de]anthracen-7-one], for which, under setting [6], the lowest-observed-adverse-effect level (LOAEL) turned out to be 60 mg/kg-day, the LOEL stood at 60 mg/kg-day, the NOAEL came to 15 mg/kg-day and the NOEL worked out at 15 mg/kg-day. In addition, under setting [7], the LOAEL is 60 mg/kg-day, the LOEL came out at 60 mg/kg-day, the no-observed-adverse-effect level (NOAEL) was determined as 15 mg/kg-day and the NOEL was 15 mg/kg-day.
In the case of `O=C1CCCCC1C1=CCCCC1` (stereo unspecified) [Cyclohexanone, 2-(1-cyclohexen-1-yl)-], for the setting “subchronic, gavage, M, Sprague-Dawley, Clinical Observation: Salivation + Body Weight Changes: decrease + Blood Chemistry: gamma-GTP increase, TP increase, Alb increase, T-Cho …”, the NOEL worked out at 40 mg/kg-day.
`c1ccc2c(c1)CCCC2` [Tetralin]: the NOAEL (short-term, duration: 28 days, gavage, M/F, Wistar, Clinical Observation: Squatting position Closed eyes Reduced activity LethargyTonic convulsion Absence of auditory startle reflex + Body …) is 15 mg/kg-day.
